In patent US6579892B1, “Triazole compounds with dopamine-D3-receptor affinity” (Abbott Laboratories, priority 1999, dated 2003):
Counter-ions that a name gives are not always drawn.

Experiments:
Cloned human D3-receptor = molecular target: T1, Cloned human D3-receptor (Homo sapiens, UniProt P35462); assay: D3 binding test (125iodosulpiride displacement); details: negative logarithm of Ki (D3) [M]
T1 construct: host or cells: CCL 1,3 mouse fibroblasts
Description: Cloned human D3-receptor-expressing CCL 1,3 mouse fibroblasts, obtainable from Res. Biochemicals Internat. One Strathmore Rd., Natick, Mass. 01760-2418 USA, were used for the binding studies.
The D3-expressing cells were multiplied in RPMI-1640 containing 10% fetal calf serum (GIBCO No. 041-32400 N); 100 U of penicillin/ml and 0.2% streptomycin (GIBO BRL, Gaithersburg, Md., USA). After 48 h, the cells were washed with PBS and incubated for 5 min with 0.05% trypsin-containing PBS. After that, the mixture was neutralized with medium and the cells were collected by centrifuging at 300 g. In order to lyse the cells, the pellet was washed briefly with lysis buffer (5 mM Tris-HCl, pH 7.4, containing 10% glycerol) and after that incubated, at 4° C. for 30 min, at a concentration of 10^7 cells/ml of lysis buffer. The cells were centrifuged at 200 g for 10 min and the pellet was stored in liquid nitrogen.
For the D3-receptor binding test, the membranes were suspended in incubation buffer (50 mM Tris-HCl, pH 7.4, containing 120 mM NaCl, 5 mM KCl, 2 mM CaCl2, 2 mM MgCl2, 10 μM quinolinol, 0.1% ascorbic acid and 0.1% BSA), at a concentration of approx. 10^6 cells/250 μl of test mixture, and incubated at 30° C. […] 0.1 nM ^125iodosulpiride in the presence and absence of the test substance. The nonspecific binding was determined using 10^−6 M spiperone.
After 60 min, the free radioligand and the bound radioligand were separated by filtering through GF/B glass fiber filters (Whatman, England) on a Skatron cell harvester (Skatron, Lier, Norway), and the filters were washed with ice-cold Tris-HCl buffer, pH-7.4. The radioactivity which had collected on the filters was quantified using a Packard 2200 CA liquid scintillation counter.
The Ki values were determined by means of nonlinear regression analysis using the LIGAND program.

[1] = molecular target: T2, human dopamine D2A receptors (Homo sapiens, UniProt P14416); assay: D2 binding test (low affinity state, 125I-spiperone); details: ratio Ki(D2)/Ki(D3)
T2 construct: expressed in transfected cells; host or cells: HEK-293
Description: All the media contained 100 units of penicillin […] and 100 μg/ml of streptomycin/ml. The cells were maintained at 37° C. in a moist atmosphere containing 5% CO2.
The cells were prepared for the binding studies by trypsinizing them (0.05% solution of trypsin) at room temperature for 3-5 minutes. After that, the cells were centrifuged at 250 g for 10 minutes and treated with lysis buffer (5 mM Tris-HCl, 10% glycerol, pH 7.4) at 4° C. for 30 minutes. After centrifuging at 250 g for 10 minutes, the residue was stored at −20° C. until used.
Low affinity state dopamine D2 receptor using ^125I-spiperone (81 TBq/mmol, Du Pont de Nemours, Dreieich)
The test mixtures (1 ml) consisted of 1×10^5 cells in incubation buffer (50 mM Tris, 120 mM NaCl, 5 mM KCl, 2 mM MgCl2 and 2 mM CaCl2, pH 7.4 with HCl) and […] ^125I-spiperone (total binding) or additionally 1 μM haloperidol (nonspecific binding) or test substance.
After the test mixtures had been incubated at 25° C. for 60 minutes, they were filtered through GM/B glass filters (Whatman, England) on a Skatron cell harvester (from Zinsser, Frankfurt), and the filters were washed with ice-cold 50 mM Tris-HCl buffer, pH 7.4. The radioactivity which had collected on the filters was quantified using a Packard 2200 CA liquid scintillation counter.
The results were evaluated as described in a).
The Ki values were determined by way of nonlinear regression analysis using the LIGAND program or by converting the IC50 values using the Cheng and Prusoff formula.

T1 sequence (P35462 whole entry): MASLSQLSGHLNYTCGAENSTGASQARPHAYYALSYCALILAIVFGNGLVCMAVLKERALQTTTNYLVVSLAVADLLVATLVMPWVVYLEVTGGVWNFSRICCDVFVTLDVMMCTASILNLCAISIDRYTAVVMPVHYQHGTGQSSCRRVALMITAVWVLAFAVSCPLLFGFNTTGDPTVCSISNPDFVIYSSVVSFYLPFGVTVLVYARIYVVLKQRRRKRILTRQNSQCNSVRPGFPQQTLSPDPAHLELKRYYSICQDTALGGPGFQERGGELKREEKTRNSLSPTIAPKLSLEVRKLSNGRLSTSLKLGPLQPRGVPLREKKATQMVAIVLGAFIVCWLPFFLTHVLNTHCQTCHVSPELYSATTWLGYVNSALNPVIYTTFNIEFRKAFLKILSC
T2 sequence (P14416 whole entry): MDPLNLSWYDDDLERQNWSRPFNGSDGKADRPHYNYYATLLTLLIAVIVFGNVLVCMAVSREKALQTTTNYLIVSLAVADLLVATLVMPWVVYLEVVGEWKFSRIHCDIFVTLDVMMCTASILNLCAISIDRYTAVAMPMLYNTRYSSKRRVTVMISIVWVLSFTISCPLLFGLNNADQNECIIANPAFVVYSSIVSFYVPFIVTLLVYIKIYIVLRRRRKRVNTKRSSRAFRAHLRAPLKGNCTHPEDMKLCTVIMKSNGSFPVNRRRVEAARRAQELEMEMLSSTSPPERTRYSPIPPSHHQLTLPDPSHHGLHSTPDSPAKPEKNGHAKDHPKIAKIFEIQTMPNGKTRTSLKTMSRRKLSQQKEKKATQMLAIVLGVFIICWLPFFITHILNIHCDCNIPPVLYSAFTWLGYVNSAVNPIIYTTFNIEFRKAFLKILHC

| Compound | melting point | Selectivity (Ki(D2)/Ki(D3)) [1] | other results |
| --- | --- | --- | --- |
| Cc1ncsc1-c1nnc(SCCCNCCCC2CCc3ccc(F)cc32)n1C.Cl (stereo not drawn) | 123 °C |  |  |
| COc1cc2c(cc1OC)C(NCCCSc1nnc(-c3ccccc3)n1C)CC2.Cl (stereo not drawn) | 201 to 202 °C |  |  |
| 3-[3-(6-Methyl-1,2,3,4-tetrahydronaphth-2-ylmethylamino)propylmercapto]-4-methyl-5-phenyl-1,2,4(4H)-triazole [Example 14] |  | 46 | pKi (D3) (Cloned human D3-receptor): 7.82 |
| 3-[3-(N-(Indan-2-yl)propylamino)propylmercapto]-4-methyl-5-phenyl-1,2,4(4H)-triazole Fumarate [Example 1] |  | 71 | pKi (D3) (Cloned human D3-receptor): 9.05 |
| CCOC(=O)c1nnc(SCCCNC2Cc3ccccc3C2)n1C (as salt: HCl) [Example 25, Ethyl-5-{[3-(indan-2-ylamino)propyl]mercapto}-4-methyl-1,2,4(4H)-triazole-3-carboxylate] | 135 to 139 °C |  |  |
| CCCN(CCCSc1nnc(-c2scnc2C)n1C)C1CCc2ccc(OC)cc2C1 (stereo not drawn) [Example 26, 3-[3-(N-(7-Methoxy-1,2,3,4-tetrahydronaphth-2-yl)-propylamino)propylmercapto]-4-methyl-5-(4-methyl-1,3-thiazol-5-yl)-1,2,4(4H)-triazole] |  | 157 | Ki (Cloned human D3-receptor; read-out: pKi (D3) (converted)): 8.71e-09 M |

Continued, in another order:

| melting point | Compound | Selectivity (Ki(D2)/Ki(D3)) [1] | other results |
| --- | --- | --- | --- |
| 88 °C (dec.) | Cl.Cn1c(SCCCNCC2CCc3cc(Br)ccc3C2)nnc1-c1ccccc1 (stereo not drawn) |  |  |
| 92 to 95 °C | COc1ccc2c(c1)CC(CCCNCCCSc1nnc(-c3ccccc3)n1C)CC2 (stereo not drawn) (as salt: HCl) [Example 18, 3-[3-(N-(7-Methoxy-1,2,3,4-tetrahydronaphth-2-yl)propylamino)propylmercapto]-4-methyl-5-phenyl-1,2,4(4H)-triazole] |  |  |
| 69 to 73 °C | Cc1ccc2c(c1)CCC(NCCCSc1nnc(-c3ccccc3)n1C)C2 (stereo not drawn) [Example 4, 3-[3-(6-Methyl-1,2,3,4-tetrahydronaphth-2-ylamino)propylmercapto]-4-methyl-5-phenyl-1,2,4(4H)-triazole] |  |  |
